{
  "source": "patent US20210254272A1",
  "about": "“TEXTILES HAVING ANTIMICROBIAL PROPERTIES” (Livinguard AG, priority 2015, published 2021)",
  "tested_on": "E. coli (ATCC 25922)",
  "experiment": "AATCC Test Method 100-2012 antibacterial activity of the treated textile, after 25 washes and 12 abrasion cycles, contact time 60 minutes",
  "type": "cell-based",
  "details": "for Log reduction of antimicrobial performance: 1% o.w.f; for Log reduction of antimicrobial performance in 100 GSM cotton fabric / Log reduction of antimicrobial performance in 300 GSM cotton fabric: 2 min",
  "description": "The antibacterial activity of the textile was tested in accordance with AATCC Test Method 100-2012. Prior to the test, the fabric was cut into coupons of 2×4 inches and washed separately 25 times, and exposed to 12 abrasion cycles, as per US EPA protocol 90072PA4 (described further below). The tests were made against E. coli (ATCC 25922). Contact time was 60 minutes, after inoculating with 10^8 CFU per coupon.",
  "key": {"[1]": {"details": "exhaust 80° C., 60 min, curing 180° C., dosage 0.1% o.w.f"}, "[2]": {"details": "exhaust 80° C., 60 min, curing 180° C., dosage 0.2% o.w.f"}, "[3]": {"details": "exhaust 80° C., 60 min, curing 180° C., dosage 0.5% o.w.f"}, "[4]": {"details": "exhaust 80° C., 60 min, curing 180° C., dosage 0.8% o.w.f"}, "[5]": {"details": "exhaust 80° C., 60 min, curing 180° C., dosage 1.0% o.w.f"}},
  "data": [
    {"substance": "polyglucosamine [chitosan]", "values": [
      {"measurement": "Log reduction of antimicrobial performance of each active ingredient", "setting": "exhaust 60° C., solution dosage 1% o.w.f, process time 60 min", "value": 1.4, "unit": "Log"},
      {"measurement": "Log reduction of antimicrobial performance of each active ingredient", "setting": "exhaust 60° C., solution dosage 1% o.w.f, process time 90 min", "value": 1.5, "unit": "Log"},
      {"measurement": "Log reduction of antimicrobial performance of each active ingredient", "setting": "exhaust 60° C., solution dosage 1% o.w.f, process time 120 min", "value": 1.6, "unit": "Log"},
      {"measurement": "Log reduction of antimicrobial performance of each active ingredient", "setting": "exhaust 60° C., solution dosage 1% o.w.f, process time 180 min", "value": 1.7, "unit": "Log"},
      {"measurement": "Log reduction of antimicrobial performance of each active ingredient", "setting": "exhaust 60° C., solution dosage 1% o.w.f, process time 240 min", "value": 1.65, "unit": "Log"},
      {"measurement": "Log reduction of antimicrobial performance", "setting": "exhaust 80° C., 60 min, curing 170° C., curing dwell time 0.5 min", "value": 0.3, "unit": "Log"},
      {"measurement": "Log reduction of antimicrobial performance", "setting": "exhaust 80° C., 60 min, curing 170° C., curing dwell time 1.0 min", "value": 0.7, "unit": "Log"},
      {"measurement": "Log reduction of antimicrobial performance", "setting": "exhaust 80° C., 60 min, curing 170° C., curing dwell time 1.5 min", "value": 0.7, "unit": "Log"},
      {"measurement": "Log reduction of antimicrobial performance", "setting": "exhaust 80° C., 60 min, curing 170° C., curing dwell time 2.0 min", "value": 1.4, "unit": "Log"},
      {"measurement": "Log reduction of antimicrobial performance", "setting": "exhaust 80° C., 60 min, curing 170° C., curing dwell time 2.5 min", "value": 1.3, "unit": "Log"},
      {"measurement": "Log reduction of antimicrobial performance", "setting": "exhaust 80° C., 60 min, curing 170° C., curing dwell time 3.0 min", "value": 0.64, "unit": "Log"},
      {"measurement": "Log reduction of antimicrobial performance", "setting": "exhaust 80° C., 60 min, curing 180° C., curing dwell time 0.5 min", "value": 1.4, "unit": "Log"},
      {"measurement": "Log reduction of antimicrobial performance", "setting": "exhaust 80° C., 60 min, curing 180° C., curing dwell time 1.0 min", "value": 1.5, "unit": "Log"},
      {"measurement": "Log reduction of antimicrobial performance", "setting": "exhaust 80° C., 60 min, curing 180° C., curing dwell time 1.5 min", "value": 1.6, "unit": "Log"},
      {"measurement": "Log reduction of antimicrobial performance", "setting": "exhaust 80° C., 60 min, curing 180° C., curing dwell time 2.0 min", "value": 3.5, "unit": "Log"},
      {"measurement": "Log reduction of antimicrobial performance", "setting": "exhaust 80° C., 60 min, curing 180° C., curing dwell time 2.5 min", "value": 3.5, "unit": "Log"},
      {"measurement": "Log reduction of antimicrobial performance", "setting": "exhaust 80° C., 60 min, curing 180° C., curing dwell time 3.0 min", "value": 3.4, "unit": "Log"},
      {"measurement": "Log reduction of antimicrobial performance", "setting": "exhaust 80° C., 60 min, curing 190° C., curing dwell time 0.5 min", "value": 0.3, "unit": "Log"},
      {"measurement": "Log reduction of antimicrobial performance", "setting": "exhaust 80° C., 60 min, curing 190° C., curing dwell time 1.0 min", "value": 1.2, "unit": "Log"},
      {"measurement": "Log reduction of antimicrobial performance", "setting": "exhaust 80° C., 60 min, curing 190° C., curing dwell time 1.5 min", "value": 1.4, "unit": "Log"},
      {"measurement": "Log reduction of antimicrobial performance", "setting": "exhaust 80° C., 60 min, curing 190° C., curing dwell time 2.0 min", "value": 2.66, "unit": "Log"},
      {"measurement": "Log reduction of antimicrobial performance", "setting": "exhaust 80° C., 60 min, curing 190° C., curing dwell time 2.5 min", "value": 2.31, "unit": "Log"},
      {"measurement": "Log reduction of antimicrobial performance", "setting": "exhaust 80° C., 60 min, curing 190° C., curing dwell time 3.0 min", "value": 1.3, "unit": "Log"},
      {"measurement": "Log reduction of antimicrobial performance", "setting": "exhaust 80° C., 60 min, curing temperature 100 ° C.", "value": 0.16, "unit": "Log"},
      {"measurement": "Log reduction of antimicrobial performance", "setting": "exhaust 80° C., 60 min, curing temperature 120 ° C.", "value": 0.23, "unit": "Log"},
      {"measurement": "Log reduction of antimicrobial performance", "setting": "exhaust 80° C., 60 min, curing temperature 140 ° C.", "value": 0.88, "unit": "Log"},
      {"measurement": "Log reduction of antimicrobial performance", "setting": "exhaust 80° C., 60 min, curing temperature 160 ° C.", "value": 1.34, "unit": "Log"},
      {"measurement": "Log reduction of antimicrobial performance", "setting": "exhaust 80° C., 60 min, curing temperature 165 ° C.", "value": 1.38, "unit": "Log"},
      {"measurement": "Log reduction of antimicrobial performance", "setting": "exhaust 80° C., 60 min, curing temperature 170 ° C.", "value": 1.48, "unit": "Log"},
      {"measurement": "Log reduction of antimicrobial performance", "setting": "exhaust 80° C., 60 min, curing temperature 175 ° C.", "value": 2.41, "unit": "Log"},
      {"measurement": "Log reduction of antimicrobial performance", "setting": "exhaust 80° C., 60 min, curing temperature 180 ° C.", "value": 2.67, "unit": "Log"},
      {"measurement": "Log reduction of antimicrobial performance", "setting": "exhaust 80° C., 60 min, curing temperature 185 ° C.", "value": 2.68, "unit": "Log"},
      {"measurement": "Log reduction of antimicrobial performance", "setting": "exhaust 80° C., 60 min, curing temperature 190 ° C.", "value": 2.69, "unit": "Log"},
      {"measurement": "Log reduction of antimicrobial performance", "setting": "exhaust 80° C., 60 min, curing temperature 195 ° C.", "value": 2.71, "unit": "Log"},
      {"measurement": "Log reduction of antimicrobial performance in 100 GSM cotton fabric", "setting": "[1]", "value": 0.63, "unit": "Log"},
      {"measurement": "Log reduction of antimicrobial performance in 300 GSM cotton fabric", "setting": "[1]", "value": 0.65, "unit": "Log"},
      {"measurement": "Log reduction of antimicrobial performance in 100 GSM cotton fabric", "setting": "[2]", "value": 1.37, "unit": "Log"},
      {"measurement": "Log reduction of antimicrobial performance in 300 GSM cotton fabric", "setting": "[2]", "value": 1.38, "unit": "Log"},
      {"measurement": "Log reduction of antimicrobial performance in 100 GSM cotton fabric", "setting": "[3]", "value": 1.91, "unit": "Log"},
      {"measurement": "Log reduction of antimicrobial performance in 300 GSM cotton fabric", "setting": "[3]", "value": 1.91, "unit": "Log"},
      {"measurement": "Log reduction of antimicrobial performance in 100 GSM cotton fabric", "setting": "[4]", "value": 2.21, "unit": "Log"},
      {"measurement": "Log reduction of antimicrobial performance in 300 GSM cotton fabric", "setting": "[4]", "value": 2.21, "unit": "Log"},
      {"measurement": "Log reduction of antimicrobial performance in 100 GSM cotton fabric", "setting": "[5]", "value": 2.71, "unit": "Log"},
      {"measurement": "Log reduction of antimicrobial performance in 300 GSM cotton fabric", "setting": "[5]", "value": 2.72, "unit": "Log"},
      {"measurement": "Log reduction of antimicrobial performance of each active ingredient", "setting": "exhaust 80° C., 60 min, dosage 1% o.w.f (test up to 5% o.w.f)", "value": 2.45, "unit": "Log"},
      {"measurement": "Log reduction of antimicrobial performance of each active ingredient", "setting": "exhaust 80° C., 60 min, dosage 2% o.w.f", "value": 2.46, "unit": "Log"},
      {"measurement": "Log reduction of antimicrobial performance of each active ingredient", "setting": "exhaust 80° C., 60 min, dosage 3% o.w.f", "value": 2.47, "unit": "Log"},
      {"measurement": "Log reduction of antimicrobial performance of each active ingredient", "setting": "exhaust 80° C., 60 min, dosage 4% o.w.f", "value": 2.47, "unit": "Log"},
      {"measurement": "Log reduction of antimicrobial performance of each active ingredient", "setting": "exhaust 80° C., 60 min, dosage 5% o.w.f", "value": 2.47, "unit": "Log"},
      {"measurement": "Log reduction of antimicrobial performance of each active ingredient", "setting": "exhaust 80 ° C., solution dosage 1% o.w.f, process time 10 min", "value": 0.67, "unit": "Log"},
      {"measurement": "Log reduction of antimicrobial performance of each active ingredient", "setting": "exhaust 80 ° C., solution dosage 1% o.w.f, process time 20 min", "value": 1.13, "unit": "Log"},
      {"measurement": "Log reduction of antimicrobial performance of each active ingredient", "setting": "exhaust 80 ° C., solution dosage 1% o.w.f, process time 30 min", "value": 1.43, "unit": "Log"},
      {"measurement": "Log reduction of antimicrobial performance of each active ingredient", "setting": "exhaust 80 ° C., solution dosage 1% o.w.f, process time 40 min", "value": 1.73, "unit": "Log"},
      {"measurement": "Log reduction of antimicrobial performance of each active ingredient", "setting": "exhaust 80 ° C., solution dosage 1% o.w.f, process time 50 min", "value": 2.45, "unit": "Log"},
      {"measurement": "Log reduction of antimicrobial performance of each active ingredient", "setting": "exhaust 80 ° C., solution dosage 1% o.w.f, process time 60 min", "value": 2.67, "unit": "Log"},
      {"measurement": "Log reduction of antimicrobial performance of each active ingredient", "setting": "exhaust 80 ° C., solution dosage 1% o.w.f, process time 70 min", "value": 2.68, "unit": "Log"},
      {"measurement": "Log reduction of antimicrobial performance of each active ingredient", "setting": "exhaust 80 ° C., solution dosage 1% o.w.f, process time 80 min", "value": 2.72, "unit": "Log"}
    ]}
  ]
}
